Several values for one entry are separate records, joined by “and”; a condition that tells them apart may be missing. Equal values may be shown once.
Experiments:
[1] = test system: MDA-MB-231 control cells (scramble shRNA); assay: Sulforhodamine B (SRB) cytotoxicity assay; format: cell-based, human; settings: 72 h
Method in brief: (§1)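 Stable scramble-shRNA control and shPARG knockdown MDA-MB-231 cells, and MRC-5 cells, exposed to increasing compound concentrations for growth-inhibitory IC50 determination. Data normalized to 100% survival at the lowest inhibitor concentration; equivalent DMSO as negative control.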

MDA-MB-231 PARG-KD cells = assay: Sulforhodamine B (SRB) cytotoxicity assay; format: cell-based, human
Method in brief: as §1

MDA-MB-231 cells [2] = assay: Clonogenic survival assay; format: cell-based, human; settings: for colony count (clonogenic survival, raw replicate data, Supplementary Figure 8): MDA-MB-231
Method: (§2) Fig. 6 Selective inhibition of PARG by xanthine derivative JA2131. a Clonogenic survival assays of PC3, MDA-MB-231, and MCF-7 cells treated with PARGi. Cells were treated with either DMSO or 10 µM JA2131 for 2 h, irradiated with 3 Gy (MDA-MB-231 and MCF-7), 7 Gy (PC3) IR and grown for ~2 weeks, then colonies were fixed with methanol and stained with crystal violet. The results of three independent experiments are shown. Error bars = the standard error of the mean (SEM). b dose-response of JA2131 in MDA-MB-231 cells with and without IR. Cells were treated with designated concentrations of JA2131 for 2 h and then either left untreated or exposed to 3 Gy IR and allowed to recover for 1 h before lysis. Total protein was immunoblotted with anti-PAR antibody (upper panel), stripped and reprobed with anti-PCNA as a loading control. c MDA-MB-231 cells with stable scrambled shRNA (WT) or stable PARG shRNA, knockdown (KD), were treated with 5 μM JA2131 for 2 h, lysed and then total lysates were immunoblotted for anti-PAR (upper panel) followed by anti-PARG (upper middle panel), anti-PARP1 (lower middle panel) and anti-actin (bottom panel) antibody. […] Stable cells with scramble shRNA (control) and shPARG (PARG-KD) cells were treated with an increasing concentration of JA2131 for growth inhibitory IC50 determination. The data was normalized against 100% survival at the lowest inhibitor concentration. Error bars show the percent coefficient of variation. Equivalent concentrations of DMSO were used as a negative control. e The cytotoxicity of JA2131 along with PDD, Veliparib and Doxorubicin against MRC-5 cells. Error bars show the percent coefficient of variation. f CETSA for in-cell JA2131 target engagement. Normalized anti-PARG western blot intensities of three independent experiments were fitted as above and the estimated aggregation temperature (Tagg) is shown in the tabulated insert. Source Data are provided as a Source Data file.
(§3) PC3, MDA-MB-231 cells were maintained in RPMI 1640, MCF-7 cells in Eagle’s Minimum Essential Medium (EMEM), MRC-5 cells in Eagle’s Minimum Essential Medium and Hela and U2OS cells in Dulbecco’s modified Eagle’s high glucose medium (DMEM) supplemented with 10% (vol/vol) fetal bovine serum (FBS) and 1% antibiotic/antimycotic (Lonza) in a humidified incubator with 10% CO2. All cell lines were purchased from ATCC and regularly checked for mycoplasma and cell authentication. SUM 149PT cells were cultured in F-12 Hams (Gibco) supplemented with 5% fetal bovine serum, insulin, and hydrocortisone. Colony formation assays were carried out in 6-well plates, 500 cells were used per well and following designated treatment, and colonies were grown for 2 weeks. Cells were fixed with methanol (100%), stained with crystal violet and analyzed using a GelCount instrument (Oxford Optronix Ltd). Crystal Violet C6158 was purchased from Sigma. PARG knockdown cells were generated by infecting MDA-MB-231 cells with shPARG lentiviral particles (sc-106355-V, Santa Cruz Biotechnology), which contain a pool of three shRNA plasmids. After 24 h infection, 3 µg/ml puromycin (Invitrogen) was added and antibiotic-resistant cells were further expanded and used for experimentation. Sequence-1; hairpin sequence: […], sense: […]tt, Antisense: […]tt. Sequence-2; hairpin sequence, […]-[…], sense: […]tt, antisense: […]tt. Sequence-3; hairpin sequence: […]-[…], sense: […]tt, antisense: […]-GGUUUCCtt. Control cells were generated using the same process except that scramble lentiviral particles with scrambled sequences were used (sc-108080).
(§4) Supplementary Fig. 8: Clonogenic survival of cells in the presence of PARGi and PARPi (a)
(§5) Clonogenic survival of PC3 cells in response to indicated compounds. ( b) Clonogenic survival of
(§6) MDA-MB-231 cells in response to i ndicated compounds. (c) Clonogenic survival of MCF -7 cells
(§7) in response to indicated compounds. […]

PC3 cells = assay: Clonogenic survival assay; format: cell-based, human; settings: for surviving colonies, Replicates: two weeks
Method: as §2, §3, §4, §5, §6, §7

hPARP1 = hPARP1 (Homo sapiens, UniProt P09874); assay: In vitro PARP1 auto-PARylation; settings: inhibitor 25 – 100 µM; 25 µM NAD+
MDA-MB-231 cells [3] = assay: Clonogenic survival assay; format: cell-based, human; settings: 10 µM JA2131 2 h; 3 Gy IR; ~2 weeks
[4] = 10 µM JA2131 2 h, 7 Gy IR, ~2 weeks

Sequence of hPARP1 (P09874 whole entry): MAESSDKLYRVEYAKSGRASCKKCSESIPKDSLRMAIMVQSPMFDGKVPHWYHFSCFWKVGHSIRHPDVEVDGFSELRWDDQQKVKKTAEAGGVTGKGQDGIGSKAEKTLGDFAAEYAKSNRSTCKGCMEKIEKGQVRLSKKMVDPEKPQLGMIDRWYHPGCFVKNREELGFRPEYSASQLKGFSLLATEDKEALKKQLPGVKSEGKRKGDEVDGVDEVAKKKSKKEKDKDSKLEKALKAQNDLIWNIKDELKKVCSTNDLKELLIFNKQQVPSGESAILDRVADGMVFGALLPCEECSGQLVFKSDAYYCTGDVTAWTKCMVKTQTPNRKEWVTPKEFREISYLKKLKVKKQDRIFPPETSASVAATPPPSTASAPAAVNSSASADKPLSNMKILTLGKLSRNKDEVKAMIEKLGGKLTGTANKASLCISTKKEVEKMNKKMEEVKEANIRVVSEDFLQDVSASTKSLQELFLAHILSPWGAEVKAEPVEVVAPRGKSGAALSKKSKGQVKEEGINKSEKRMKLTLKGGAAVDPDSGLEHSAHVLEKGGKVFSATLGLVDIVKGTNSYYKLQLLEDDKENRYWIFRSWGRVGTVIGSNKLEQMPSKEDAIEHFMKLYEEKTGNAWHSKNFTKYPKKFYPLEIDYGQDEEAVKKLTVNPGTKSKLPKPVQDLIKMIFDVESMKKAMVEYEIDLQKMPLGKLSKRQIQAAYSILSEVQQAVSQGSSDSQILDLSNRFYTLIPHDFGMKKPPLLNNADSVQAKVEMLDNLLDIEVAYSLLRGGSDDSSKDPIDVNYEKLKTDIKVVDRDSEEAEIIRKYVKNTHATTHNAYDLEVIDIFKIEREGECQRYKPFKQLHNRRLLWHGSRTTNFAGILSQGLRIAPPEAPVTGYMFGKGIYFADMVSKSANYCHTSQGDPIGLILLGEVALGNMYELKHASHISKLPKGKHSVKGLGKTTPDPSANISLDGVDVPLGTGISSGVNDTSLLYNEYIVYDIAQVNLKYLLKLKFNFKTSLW

Cn1c(=S)c2[nH]c(SCCN3CCOCC3)nc2n(C)c1=O [JA2131]
IC50 ([1]; Homo sapiens, MDA-MB-231, growth inhibitory): 3.89 ± 0.88 µM
Viability ([1]; log concentration μM 0.193959): 75.9862%
Viability ([1]; log concentration μM 0.49485): 65.9005%
Viability ([1]; log concentration μM 0.79588): 45.256%
Viability ([1]; log concentration μM 1.09691): 30.1241%
Viability ([1]; log concentration μM 1.69897): 14.974%
Viability ([1]; log concentration μM 2): 13.0697%
Viability ([1]; log concentration μM 2.30103): 16.4202%
Viability ([1]; log concentration μM -0.10735): 96.2538%
Viability ([1]; log concentration μM -0.40782): 101.482%
Viability ([1]; log concentration μM -0.70997): 100%
Viability ([1]; log concentration μM -1.00877): 100%
IC50 in PARG-depleted cells relative to control cells (MDA-MB-231 PARG-KD cells): ~10 fold
fraction of PARG-KD cells responding to the PARGi (MDA-MB-231 PARG-KD cells): 50%
IC50 (MDA-MB-231 PARG-KD cells; Homo sapiens, MDA-MB-231, growth inhibitory, 72 h): 34.4 ± 13.3 µM
Viability (MDA-MB-231 PARG-KD cells; log concentration μM 0.193959, 72 h): 105.597%
Viability (MDA-MB-231 PARG-KD cells; log concentration μM 0.49485, 72 h): 101.727%
Viability (MDA-MB-231 PARG-KD cells; log concentration μM 0.79588, 72 h): 99.9152%
Viability (MDA-MB-231 PARG-KD cells; log concentration μM 1.09691, 72 h): 97.9571%
Viability (MDA-MB-231 PARG-KD cells; log concentration μM 2, 72 h): 52.7893%
Viability (MDA-MB-231 PARG-KD cells; log concentration μM 2.30103, 72 h): 51.5972%
Viability (MDA-MB-231 PARG-KD cells; log concentration μM -0.10735, 72 h): 104.639%
Viability (MDA-MB-231 PARG-KD cells; log concentration μM -0.40782, 72 h): 106.229%
Viability (MDA-MB-231 PARG-KD cells; log concentration μM -0.70997, 72 h): 102.262%
Viability (MDA-MB-231 PARG-KD cells; log concentration μM -1.00877, 72 h): 100%
Surviving Fraction (MDA-MB-231 cells [2]; 10 µM JA2131 2 h, 3 Gy IR, ~2 weeks): 0.4526 and 0.3681 and 0.2687 and 0.3631
colony count (clonogenic survival, raw replicate data, Supplementary Figure 8) (MDA-MB-231 cells [2]; Experiment-1, replicates 1-6): 76 (2×) and 74 and 77 and 70 and 85
colony count (clonogenic survival, raw replicate data, Supplementary Figure 8) (MDA-MB-231 cells [2]; Experiment-2, replicates 1-6): 61 (3×) and 68 and 76 and 65
colony count (clonogenic survival, raw replicate data, Supplementary Figure 8) (MDA-MB-231 cells [2]; Experiment-3, replicates 1-6): 34 and 25 and 20 and 47 and 33 and 35
Surviving Fraction (PC3 cells; [4]): 0.7713 and 0.7545 and 0.8277 and 0.7845
clonogenic survival (Exp-1 to Exp-4) (PC3 cells; [4]): 77.1344 and 75.4495 and 82.7709 and 78.4516
surviving colonies, Replicates (PC3 cells; JA2131 0.5 uM): 47 and 58 and 49 and 56 and 83 and 61
surviving colonies, Replicates (PC3 cells; JA2131 1 uM): 9 and 48 and 34 and 20 and 62 and 2
surviving colonies, Replicates (PC3 cells; JA2131 5 uM): 1 and 29 and 2 (2×) and 24 and 0
surviving colonies, Replicates (PC3 cells; JA2131 10 uM): 2 and 15 and 14 and 0 and 21 and 5
inhibition of PARP1 activation (PAR synthesis) (hPARP1): did not inhibit PARP1 activation up to 100 μM
clonogenic survival (Exp-1 to Exp-4) (MDA-MB-231 cells [3]): 45.2569 and 36.8075 and 26.8698 and 36.3114

From article PMC6906431, “Selective small molecule PARG inhibitor causes replication fork stalling and cancer cell death” (Nature Communications, 2019)
